Reference: patent US7790461B2, “Nano-emulsion technology for drug elution” (Medtronic MiniMed, Inc., priority 2007, dated 2010)

Tests used:
[1] = Stability of drug in elution media; assay type: physicochemical; details: length of the study
Protocol: The mobile phase preparation and choice of the column were instructed in the Dexamethasone Acetate monograph USP29-NF24. The mobile phase A consisted of pH 4.1 formate buffer and acetonitrile (3:2), and mobile phase B consisted of pH 4.1 formate buffer and acetonitrile (9:1). The chromatographic column (USP L11) used was an Agilent Zorbax SB-Phenyl, 4.6 mm×250 mm, 5 μm. A gradient was used with 1 mL/min flow rate. The run time was about 70 minutes. […] The injection volume for standard and samples was 100 μL.

[2] = 0.022 mg/mL
Protocol: To evaluate buffers with different pH, eleven milligrams of Dexamethasone Acetate was dissolved in 500 mL of media (different pH adjusted buffers).

In the case of `CC(=O)OCC(=O)[C@@]1(O)[C@H](C)C[C@H]2[C@@H]3CCC4=CC(=O)C=C[C@]4(C)[C@@]3(F)[C@@H](O)C[C@@]21C` [Dexamethasone Acetate], the “stability in the media” value [1] is reported as “stable” and the “stability with respect to pH (order)” value [2] is reported as “pH 3>pH 5≅acetate pH 5.7>water>pH 7>pH 9”.
